# Like-named read-outs stand apart in the source and are kept apart here.
# What was measured:
# [1] = target: class C beta-lactamase of Enterobacter cloacae P99 (Enterobacter cloacae, UniProt P05364); settings: cited from earlier work
# [2] = target: class C beta-lactamase of Serratia marcescens (Serratia marcescens, UniProt P18539); settings: cited from earlier work
# [3] = target: class C beta-lactamase of Escherichia coli K12 (Escherichia coli, UniProt P00811); settings: cited from earlier work
# class C beta-lactamase of Escherichia coli K12, sequence (P00811 20-377): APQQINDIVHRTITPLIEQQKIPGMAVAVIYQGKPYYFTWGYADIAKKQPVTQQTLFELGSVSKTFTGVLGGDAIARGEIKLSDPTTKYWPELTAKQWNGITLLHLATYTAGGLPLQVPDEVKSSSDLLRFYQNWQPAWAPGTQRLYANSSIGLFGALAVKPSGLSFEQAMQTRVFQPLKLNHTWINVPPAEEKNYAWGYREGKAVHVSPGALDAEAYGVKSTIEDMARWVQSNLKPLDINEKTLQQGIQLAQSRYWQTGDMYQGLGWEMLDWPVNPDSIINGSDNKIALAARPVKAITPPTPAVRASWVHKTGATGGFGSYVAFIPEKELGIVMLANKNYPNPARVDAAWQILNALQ
# [4] = target: class C beta-lactamase of Pseudomonas aeruginosa (Pseudomonas aeruginosa, UniProt P24735); settings: cited from earlier work
# class C beta-lactamase of Pseudomonas aeruginosa, sequence (P24735 27-397): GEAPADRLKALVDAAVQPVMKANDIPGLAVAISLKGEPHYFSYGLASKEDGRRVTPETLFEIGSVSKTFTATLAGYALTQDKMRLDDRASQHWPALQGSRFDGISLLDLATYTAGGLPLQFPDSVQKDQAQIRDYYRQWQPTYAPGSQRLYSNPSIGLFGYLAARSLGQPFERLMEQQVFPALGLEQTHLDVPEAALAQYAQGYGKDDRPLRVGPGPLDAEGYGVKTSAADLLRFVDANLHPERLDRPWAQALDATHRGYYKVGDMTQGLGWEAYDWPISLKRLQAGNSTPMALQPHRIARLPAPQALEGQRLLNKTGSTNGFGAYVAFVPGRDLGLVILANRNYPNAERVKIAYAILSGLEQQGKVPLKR
# [5] = system: class C beta-lactamase of Enterobacter cloacae 908R; settings: cited from earlier work
# [6] = target: class C beta-lactamase of Citrobacter freundii (Citrobacter freundii, UniProt P05193); settings: cited from earlier work
# class C beta-lactamase of Citrobacter freundii, sequence (P05193 21-381): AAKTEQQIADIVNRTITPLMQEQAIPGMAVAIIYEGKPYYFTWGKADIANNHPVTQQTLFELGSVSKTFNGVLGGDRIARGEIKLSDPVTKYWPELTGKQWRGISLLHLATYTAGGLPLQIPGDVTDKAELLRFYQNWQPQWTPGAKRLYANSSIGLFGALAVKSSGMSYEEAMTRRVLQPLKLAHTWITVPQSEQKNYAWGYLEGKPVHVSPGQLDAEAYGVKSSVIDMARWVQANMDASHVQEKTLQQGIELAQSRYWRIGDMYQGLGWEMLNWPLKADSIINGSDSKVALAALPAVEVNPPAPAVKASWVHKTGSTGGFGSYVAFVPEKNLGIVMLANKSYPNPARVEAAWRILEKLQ
# [7] = target: P99 class C beta-lactamase (Enterobacter cloacae, UniProt P05364); experiment: BLAC1 method, nitrocefin (CPR) rate with P99 (Example 7); format: biochemical
# P99 class C beta-lactamase, sequence (P05364 21-381): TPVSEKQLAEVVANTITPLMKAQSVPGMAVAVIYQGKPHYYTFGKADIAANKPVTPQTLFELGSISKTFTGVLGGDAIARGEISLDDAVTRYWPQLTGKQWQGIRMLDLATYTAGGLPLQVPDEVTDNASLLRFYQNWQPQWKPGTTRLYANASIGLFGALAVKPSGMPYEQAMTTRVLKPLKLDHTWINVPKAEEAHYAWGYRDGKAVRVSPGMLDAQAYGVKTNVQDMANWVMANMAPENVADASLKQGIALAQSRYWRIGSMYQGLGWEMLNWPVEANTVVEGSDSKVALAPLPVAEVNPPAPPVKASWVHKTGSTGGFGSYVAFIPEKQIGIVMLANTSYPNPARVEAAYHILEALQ
# Procedure: (§1) The dilution buffer for the enzymes, CPR, standards and samples was 50 mM PBS buffer, pH 7.0.
# (§2) The stock solution of CPR was 200 μM. Standards solution of ampicillin and cefuroxime were prepared at 100, 75, 50, 30, 15, 5, 1 and 0 mg/L.
# In the method 1 (BLAC1), 10 μl of 50-fold diluted sample, 100 μl of CPR and 100 μl of enzyme P99 were mixed. The reaction kinetics was determined by measuring the absorbance at 482 nm as a function of time. Enzyme activity v0 max was adjusted at +/−0.33 ΔAbs482/min.
# [8] = system: Oxa-29 class D beta-lactamase; experiment: BLAC2 method, nitrocefin (CPR) rate with Oxa-29; format: biochemical
# Procedure: as §1, §2
# In the method 2 (BLAC2), 99 μl of sample, 99 μl of CPR and 22 μl of enzyme Oxa-29 were mixed. The reaction kinetics was determined by measuring the absorbance at 482 nm as a function of time. Enzyme activity v0 max was adjusted at +/−0.2 ΔAbs482/min.
# [9] = target: T1, P99A266C (Enterobacter cloacae, UniProt P05364, A266C); experiment: Reaction of immobilized enzyme on ATR element with chromogenic substrate CENTA; format: biochemical, Enterobacter cloacae P99
# T1 construct: made in house; host or cells: E. coli BL21(DE3), pET28 vector
# T1 sequence (P05364 other isoform, or with tags, fused parts or gaps A266C): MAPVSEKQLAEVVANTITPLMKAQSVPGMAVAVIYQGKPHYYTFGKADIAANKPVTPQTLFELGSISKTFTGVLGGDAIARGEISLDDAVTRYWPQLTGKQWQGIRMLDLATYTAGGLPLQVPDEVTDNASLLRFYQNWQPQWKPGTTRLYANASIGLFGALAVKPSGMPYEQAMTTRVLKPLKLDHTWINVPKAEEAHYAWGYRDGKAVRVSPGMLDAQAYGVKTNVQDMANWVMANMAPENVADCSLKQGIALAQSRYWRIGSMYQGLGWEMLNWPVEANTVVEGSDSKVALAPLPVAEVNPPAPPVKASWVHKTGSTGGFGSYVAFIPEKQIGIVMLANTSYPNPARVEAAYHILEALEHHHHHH
# Procedure: On the N-maleimide functionalized ATR element, the class C beta-lactamase P99A266C prepared as in example 2 was bound.
# P99A266C binding onto the functionalized crystal was obtained by depositing 10 μL of a solution (phosphate buffer 50 mM, pH 7) of P99A266C enzyme (30 μg/ml) during 1 h, then rinsing with buffer during 15 min at a rate of 35 μL/min.
# The immobilized enzyme was able to react rapidly with its chromogenic substrate CENTA: this was controlled by the appearance of the […] coloration.
# [10] = target: T1, P99A266C; experiment: FTIR-ATR biosensor binding; parameters: species or system Enterobacter cloacae P99; settings: 50-100 μg/mL, 10-20 min, 35 μl/min
# Procedure: A solution of the beta-lactam antibiotic cefuroxim; obtained from Sigma-Aldrich in milliQ water at a concentration of 50-100 μg/mL was passed over the biosensor constructed in Example 3. The solution was passed over the crystal during 10-20 min at a rate of 35 μl/min.
# FTIR-ATR spectra were recorded and cefuroxim binding was monitored by following the appearance of its characteristic signal. By subtracting the spectrum of the P99A266C, the spectrum of the acyl-enzyme complex appeared clearly. The intensity of the peak at 1730 cm^−1 allowed the quantitative measurement of cefuroxim binding. […] The structure of the acyl-enzyme complex is represented below.
# class C beta-lactamase of Enterobacter cloacae P99, sequence (P05364 21-381): as the sequence (P05364 21-381) above
# class C beta-lactamase of Serratia marcescens, sequence (P18539 22-376): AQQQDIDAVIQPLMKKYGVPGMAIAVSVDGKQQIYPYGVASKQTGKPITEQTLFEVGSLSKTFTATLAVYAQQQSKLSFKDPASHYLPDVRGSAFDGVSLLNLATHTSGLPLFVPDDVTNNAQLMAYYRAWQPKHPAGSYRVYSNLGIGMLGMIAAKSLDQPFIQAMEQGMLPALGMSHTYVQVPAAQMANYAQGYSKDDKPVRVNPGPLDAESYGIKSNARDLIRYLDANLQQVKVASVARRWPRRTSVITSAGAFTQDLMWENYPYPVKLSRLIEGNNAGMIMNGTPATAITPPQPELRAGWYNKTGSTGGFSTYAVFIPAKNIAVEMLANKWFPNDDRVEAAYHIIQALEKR
smiles,measurement,setting,value
CC1(C)S[C@@H]2[C@H](NC(=O)Cc3ccccc3)C(=O)N2[C@H]1C(=O)O [Benzylpenicillin],Km,[1],600 nM
same,kcat,[1],14 s⁻¹
same,kcat,[2]; Serratia marcescens,75 s⁻¹
same,Km,[2],1700 nM
same,kcat,[3],45 s⁻¹
same,kcat,[4]; Pseudomonas aeruginosa,76 s⁻¹
same,Km,[4],1700 nM
same,Km,[5],0.5 µM
same,kcat,[5],18 s⁻¹
same,Km,[6],400 nM
same,kcat,[6],31 s⁻¹
CO/N=C(\C(=O)N[C@@H]1C(=O)N2C(C(=O)O)=C(COC(N)=O)CS[C@H]12)c1ccco1 [Cefuroxime],rate of P99 class C beta-lactamase,"[7]; BLAC1, 1 mg/L",0.3247 ΔAbs482/min
same,"residual rate minus 1, (vomax/v0)−1, P99","[7]; BLAC1, 1 mg/L",0.048
same,rate of P99 class C beta-lactamase,"[7]; BLAC1, 5 mg/L",0.2763 ΔAbs482/min
same,"residual rate minus 1, (vomax/v0)−1, P99","[7]; BLAC1, 5 mg/L",0.232
same,rate of P99 class C beta-lactamase,"[7]; BLAC1, 15 mg/L",0.1938 ΔAbs482/min
same,"residual rate minus 1, (vomax/v0)−1, P99","[7]; BLAC1, 15 mg/L",0.756
same,rate of P99 class C beta-lactamase,"[7]; BLAC1, 30 mg/L",0.1417 ΔAbs482/min
same,"residual rate minus 1, (vomax/v0)−1, P99","[7]; BLAC1, 30 mg/L",1.402
same,rate of P99 class C beta-lactamase,"[7]; BLAC1, 50 mg/L",0.0957 ΔAbs482/min
same,"residual rate minus 1, (vomax/v0)−1, P99","[7]; BLAC1, 50 mg/L",2.556
same,rate of P99 class C beta-lactamase,"[7]; BLAC1, 75 mg/L",0.0736 ΔAbs482/min
same,"residual rate minus 1, (vomax/v0)−1, P99","[7]; BLAC1, 75 mg/L",3.624
same,rate of P99 class C beta-lactamase,"[7]; BLAC1, 100 mg/L",0.0539 ΔAbs482/min
same,"residual rate minus 1, (vomax/v0)−1, P99","[7]; BLAC1, 100 mg/L",5.314
same,"linear regression coefficient a (Y=aX+b), P99","[7]; BLAC1, X in mg/L",0.0518
same,"linear regression coefficient b (Y=aX+b), P99","[7]; BLAC1, X in mg/L",0.0013
same,rate of Oxa-29 Class D beta-lactamase,"[8]; BLAC2, 1 mg/L",0.2079 ΔAbs482/min
same,"residual rate minus 1, (vomax/v0)−1, Oxa-29","[8]; BLAC2, 1 mg/L",0.072
same,rate of Oxa-29 Class D beta-lactamase,"[8]; BLAC2, 5 mg/L",0.2025 ΔAbs482/min
same,"residual rate minus 1, (vomax/v0)−1, Oxa-29","[8]; BLAC2, 5 mg/L",0.100
same,rate of Oxa-29 Class D beta-lactamase,"[8]; BLAC2, 15 mg/L",0.2011 ΔAbs482/min
same,"residual rate minus 1, (vomax/v0)−1, Oxa-29","[8]; BLAC2, 15 mg/L",0.108
same,rate of Oxa-29 Class D beta-lactamase,"[8]; BLAC2, 30 mg/L",0.1992 ΔAbs482/min
same,"residual rate minus 1, (vomax/v0)−1, Oxa-29","[8]; BLAC2, 30 mg/L",0.118
same,rate of Oxa-29 Class D beta-lactamase,"[8]; BLAC2, 50 mg/L",0.1897 ΔAbs482/min
same,"residual rate minus 1, (vomax/v0)−1, Oxa-29","[8]; BLAC2, 50 mg/L",0.174
same,rate of Oxa-29 Class D beta-lactamase,"[8]; BLAC2, 75 mg/L",0.1796 ΔAbs482/min
same,"residual rate minus 1, (vomax/v0)−1, Oxa-29","[8]; BLAC2, 75 mg/L",0.241
same,rate of Oxa-29 Class D beta-lactamase,"[8]; BLAC2, 100 mg/L",0.1749 ΔAbs482/min
same,"residual rate minus 1, (vomax/v0)−1, Oxa-29","[8]; BLAC2, 100 mg/L",0.274
same,"linear regression coefficient a (Y=aX+b), Oxa-29","[8]; BLAC2, X in mg/L",0.0023
same,"linear regression coefficient b (Y=aX+b), Oxa-29","[8]; BLAC2, X in mg/L",0.0003
same,kcat,[1],0.05 s⁻¹
same,Km,[1]; read-out: Km,16 nM
same,kcat,[2]; Serratia marcescens,0.8 s⁻¹
same,Km,"[2]; Serratia marcescens, read-out: Km",600 nM
same,reaction of immobilized enzyme with chromogenic substrate when antibiotic fixed,[9],did not occur
same,kcat,[3],0.15 s⁻¹
same,Km,[3]; read-out: Km,150 nM
same,kcat,[4]; Pseudomonas aeruginosa,0.05 s⁻¹
same,Km,"[4]; Pseudomonas aeruginosa, read-out: Km",20 nM
same,kcat,[5],0.05 s⁻¹
same,binding to P99A266C biosensor (FTIR-ATR),[10],fixed to P99A266C (acyl-enzyme complex)
same,kcat,[6],0.04 s⁻¹
same,Km,[6]; read-out: Km,20 nM
O=C(Cc1cccs1)N[C@@H]1C(=O)N2C(C(=O)[O-])=C(C[n+]3ccccc3)CS[C@H]12 [Cephaloridine],kcat,[1],700 s⁻¹
same,kcat,[2]; Serratia marcescens,1100 s⁻¹
same,Km,[2],275000 nM
same,kcat,[3],130 s⁻¹
same,kcat,[4]; Pseudomonas aeruginosa,110 s⁻¹
same,Km,[4],20000 nM
same,Km,[5],75 µM
same,kcat,[5],600 s⁻¹
same,kcat,[6],700 s⁻¹

# From patent US9689021B2, “Method for measuring beta-lactam antibiotics” (priority 2011, dated 2017)
